Experimental data published in ChEMBL document CHEMBL1130845, “Modulation of multidrug resistance by taxuspine C and other taxoids from Japanese yew” (Bioorg Med Chem Lett, 1998).
Values after ≈ are worked out from the molar mass of the structure shown.

Columns and labels:
[1] = test system: L1210; assay: Cytotoxic activity was evaluated against murine Leukemia L1210 cells; assay type: functional, cell-based; details: Mus musculus
[2] = Cytotoxic activity was evaluated against Epidermoid Carcinoma KB cells; assay type: functional, cell-based; details: Homo sapiens
[3] = test system: Mus musculus; assay: Compound was evaluated for antitumor activity in P388/VCR-bearing mice at 200 mg/kg in the presence of vincristine at 0.1 mg/kg; assay type: functional
[4] = test system: Mus musculus; assay: Compound was evaluated for antitumor activity in P388/VCR-bearing mice at 200 mg/Kg; assay type: functional
[5] = test system: Mus musculus; assay: Compound was evaluated for antitumor activity in P388/VCR-bearing mice at 200 mg/kg in the presence of vincristine at 0.2 mg/kg; assay type: functional
[6] = test system: Mus musculus; assay: Compound was evaluated for antitumor activity in P388/VCR-bearing mice at 200 mg/Kg as in the presence of vincristine at 0.1 mg/kg; assay type: functional
[7] = test system: Mus musculus; assay: Compound was evaluated for antitumor activity in P388/VCR-bearing mice at 200 mg/kg as in the presence of vincristine at the 0.1 mg/kg; assay type: functional
[8] = Effect on cellular accumulation of Vincristine in multidrug resistant human ovarian cancer 2780AD cells was determined in the presence at a dose 10 ug/mL of taxoids; assay type: functional, A2780 ADR
[9] = test system: Mus musculus; assay: Compound was evaluated for antitumor activity in P388/VCR-bearing mice at 0.2 mg/Kg as in the presence of vincristine at 0.1 mg/kg as the ratio of median survival time of treated mice to control mice; assay type: functional
[10] = test system: Mus musculus; assay: Compound was evaluated for antitumor activity in P388/VCR-bearing mice at 0.2 mg/Kg as the ratio of median survival time of treated mice to control mice; assay type: functional
[11] = test system: Mus musculus; assay: Compound was evaluated for antitumor activity in P388/VCR-bearing mice at 0.2 mg/Kg in the presence of vincristine at 0.1 mg/kg as range.; assay type: functional
[12] = test system: Mus musculus; assay: Compound was evaluated for antitumor activity in P388/VCR-bearing mice at 0.2 mg/Kg as range.; assay type: functional
[13] = test system: Mus musculus; assay: Compound was evaluated for antitumor activity in P388/VCR-bearing mice at 0.2 mg/Kg in the presence of vincristine at 0.1 mg/kg as percent ratio of median survival time of treated mice to control mice; assay type: functional
[14] = test system: Mus musculus; assay: Compound was evaluated for antitumor activity in P388/VCR-bearing mice at 0.2 mg/Kg as percent ratio of median survival time of treated mice to control mice; assay type: functional
[15] = Effect on cellular accumulation of Vincristine in multidrug resistant human ovarian cancer 2780AD cells was determined at a dose 10 ug/mL; assay type: functional, A2780 ADR

Structure (SMILES) | IC50 [1] [µg/mL] | IC50 [2] [µg/mL] | also measured
CC(=O)O[C@H]1C(=O)[C@@]2(C)[C@H]([C@H](OC(=O)c3ccccc3)[C@]3(O)C[C@H](OC(=O)[C@H](O)[C@@H](NC(=O)c4ccccc4)c4ccccc4)C(C)=C1C3(C)C)[C@]1(OC(C)=O)CO[C@@H]1C[C@@H]2O [PACLITAXEL] | 0.33 (≈ 0.386 µM) |  | 
C=C1[C@@H](OC(=O)/C=C/c2ccccc2)CC[C@@]2(C)[C@@H](OC(C)=O)[C@H](OC(C)=O)[C@@]34[C@H](C)C(=O)C[C@@H]([C@@H](OC(C)=O)[C@@]132)C4(C)C [TAXUSPINE C] | > 10 | > 10 | 
CCCCCC(=O)N(C)[C@@H](c1ccccc1)[C@@H](O)C(=O)O[C@H]1C[C@@]2(O)[C@@H](OC(=O)c3ccccc3)[C@@H]3[C@]4(OC(C)=O)CO[C@@H]4C[C@H](O)[C@@]3(C)C(=O)[C@H](OC(C)=O)C(=C1C)C2(C)C | 0.48 (≈ 0.557 µM) | 0.17 (≈ 0.197 µM) | 
C=C1[C@@H](OC(=O)/C=C/c2ccccc2)CC[C@@]2(C)[C@@H](OC(C)=O)[C@H](OC(C)=O)C3=C(C)[C@@H](OC(C)=O)C[C@@H]([C@@H](O)[C@H]12)C3(C)C | 5.8 (≈ 9.53 µM) | 9.2 (≈ 15.1 µM) | 
C=C1C2[C@H](OC(C)=O)[C@@H]3CC(=O)[C@@H](C)C([C@@H](OC(C)=O)[C@H](OC(C)=O)[C@]2(C)CC[C@@H]1OC(=O)/C=C/c1ccccc1)C3(C)C (some centres undefined) | 5.8 (≈ 9.53 µM) | > 10 | Median T/C [3]: 12 days; T/C [4]: 138%; Median T/C [5]: 15.8 days; Range [5]: 12 days; Range [6]: 10 days; T/C [7]: 105%
CC(=O)O[C@@]12CO[C@@H]1C[C@H](O)[C@@]1(C)C(=O)[C@H](OC(=O)CC(C)O)C3=C(C)[C@@H](OC(=O)[C@H](O)[C@@H](NC(=O)c4ccccc4)c4ccccc4)C[C@@](O)([C@@H](OC(=O)c4ccccc4)[C@H]21)C3(C)C (some centres undefined) | 0.95 (≈ 1.06 µM) | 0.0025 (≈ 0.00278 µM) | 
C=C1[C@@H](OC(=O)/C=C/c2ccccc2)C[C@H](OC(C)=O)[C@]2(C)[C@@H]1C[C@@H]1C[C@H](O)C(C)=C([C@@H](OC(C)=O)[C@@H]2OC(C)=O)C1(C)C [TAXEZOPIDINE H] | 6.2 (≈ 10.2 µM) | > 10 | 
C=C1[C@@H](O)CC[C@@]2(C)[C@@H](OC(C)=O)[C@H](O)C3=C(C)C(=O)C[C@@H]([C@@H](O)[C@H]12)C3(C)C | > 10 | > 10 | 
C=C1[C@@H](O)CC[C@@]2(C)[C@@H](O)[C@H](OC(C)=O)C3=C(C)C(=O)C[C@@H]([C@@H](O)[C@H]12)C3(C)C | > 10 | > 10 | 
CC(=O)O[C@H]1C(=O)[C@@]2(C)[C@H]([C@H](OC(=O)c3ccccc3)[C@]3(O)C[C@H](O)C(C)=C1C3(C)C)[C@]1(OC(C)=O)CO[C@@H]1C[C@@H]2O [BACCATIN III] | > 10 | 10 (≈ 17 µM) | VCR accumulation [8]: 84
C=C1[C@@H](OC(=O)/C=C/c2ccccc2)C[C@H](O)[C@@]2(C)[C@@H](O)[C@H](OC(C)=O)C3=C(C)C(=O)C[C@@H]([C@@H](O)[C@H]12)C3(C)C | > 10 | 8.5 (≈ 15.8 µM) | 
C=C1[C@@H](O)C[C@H](OC(C)=O)[C@@]2(C)[C@@H](OC(C)=O)[C@H](OC(C)=O)C3=C(C)[C@@H](O)C[C@@H]([C@@H](OC(C)=O)[C@H]12)C3(C)C | > 10 | 9.2 (≈ 17.1 µM) | 
CC[C@]1(O)C[C@H]2CN(CCc3c([nH]c4ccccc34)[C@@](C(=O)OC)(c3cc4c(cc3OC)N(C=O)[C@H]3[C@@](O)(C(=O)OC)[C@H](OC(C)=O)[C@]5(CC)C=CCN6CC[C@]43[C@@H]65)C2)C1 [VINCRISTINE] |  |  | Median T/C [9]: 10.6 days; Median T/C [10]: 12.6 days; Range [11]: 10 days; Range [12]: 10 days; T/C [13]: 92%; T/C [14]: 110%
CC(=O)O[C@H]1C2=C(CO)[C@@H](O)CC[C@@]2(C)[C@@H](OC(C)=O)[C@H](OC(C)=O)[C@@]2(O)[C@H](C)C(=O)C[C@@H]1C2(C)C | > 10 | 2.6 (≈ 5.09 µM) | VCR accumulation [15]: 203
